Source: patent publication US7176313B2, “Anti acid-fast bacterial agent containing pyridonecarboxylic acids as active ingredient” (Daiichi Pharmaceutical Co., Ltd., priority 2000, dated 2007)
≈ marks a conversion by molar mass, not a printed value. Read-outs that look alike come from different tables or passages of the source.

Assays:
[1] = system: Mycobacterium tuberculosis (RFP sensitive); assay: Antibacterial activity (MIC) against Mycobacterium tuberculosis (RFP sensitive); format: cell-based
[2] = system: M. avium; assay: Antibacterial activity (MIC) against M. avium; format: cell-based, Mycobacterium avium
Protocol: Antibacterial activity of the compounds of the invention was measured in accordance with the method described in the literature of Antimicrob. […] In the tables, “OFLX” is an abbreviation of “OFLOXAIN”.

[3] = system: M. intracellulare; assay: Antibacterial activity (MIC) against M. intracellulare; format: cell-based, Mycobacterium intracellulare
Protocol: Antibacterial activity of the compounds of the invention was measured in accordance with the method described in the literature of Antimicrob. Agents and Chemother., 38, 2877 (1994), and the results are shown in Tables 3 to 8 in terms of MIC (μg/ml). In the tables, “OFLX” is an abbreviation of “OFLOXAIN”.

[4] = system: reticulocytes (RC); assay: Peripheral blood micronucleus test; format: in vivo, Male Slc:ddY mice; conditions: mice, intravenous; for MNRC (%) mean ±S.E. 24 hours: 24 hours after administration; for MNRC (%) mean ±S.E. 48 hours: 48 hours after administration; for micronucleus induction: (untreated control: 0.12±0.08)
Protocol: Peripheral Blood Micronucleus Test
Used animals and administration method are similar to those in the mouse acute toxicity test. Samples were prepared by collecting 5 μl each of blood sample from the tail vein at 24 and 48 hours after the administration, dropping the blood on a slide at which 0.1% acridine orange solution had been applied in advance, sealing the slide with a cover glass immediately, and allowing it to stand in a refrigerator for 24 hours.

[5] = Mouse acute toxicity test; format: in vivo, Male Slc:ddY mice; conditions: intravenous; for survival of mice after administration / acute toxicity: text summary of Table 9; for Mortality (dead/ test) / acute toxicity: mice
Protocol: Mouse Acute Toxicity Test
Male Slc:ddY mice at age of 5-weeks were used as test animals. For dissolving the compounds, 0.1 mol/l NaOH (in saline) was used. Mice were administered intravenously at a rate of 0.1 ml/30 seconds at a dosing volume of 10 ml/kg.

[6] = M. tuberculosis Kurono, Table 5
[7] = M. tuberculosis No. 40, Table 5
[8] = M. tuberculosis No. 68, Table 5
[9] = M. intracellulare N-294, Table 3
[10] = M. intracellulare N-313, Table 3
[11] = M. intracellulare N-338, Table 3
[12] = M. intracellulare N-345, Table 3
[13] = Mycobacterium tuberculosis, H37RV, M. tuberculosis H37Rv, Table 5, read-out: MIC
[14] = Mycobacterium tuberculosis, M. tuberculosis Kurono, Table 5, read-out: MIC
[15] = Mycobacterium tuberculosis, M. tuberculosis No. 40, Table 5, read-out: MIC
[16] = Mycobacterium tuberculosis, M. tuberculosis No. 41, Table 5, read-out: MIC
[17] = Mycobacterium tuberculosis, M. tuberculosis No. 43, Table 5, read-out: MIC
[18] = Mycobacterium tuberculosis, M. tuberculosis No. 68, Table 5, read-out: MIC
[19] = Mycobacterium avium, M. avium N-357, Table 3, read-out: MIC
[20] = Mycobacterium avium, M. avium N-458, Table 3, read-out: MIC
[21] = Mycobacterium intracellulare, M. intracellulare N-313, Table 3, read-out: MIC
[22] = Mycobacterium intracellulare, M. intracellulare N-294, Table 3, read-out: MIC
[23] = M. tuberculosis H37Rv, Table 6 (series 2)
[24] = M. tuberculosis Kurono, Table 6 (series 2)
[25] = M. tuberculosis No. 40, Table 6 (series 2)
[26] = M. tuberculosis No. 41, Table 6 (series 2)
[27] = M. tuberculosis No. 43, Table 6 (series 2)
[28] = M. tuberculosis No. 68, Table 6 (series 2)
[29] = M. avium N-357, Table 4 (series 2)
[30] = M. avium N-444, Table 4 (series 2)
[31] = M. avium N-458, Table 4 (series 2)
[32] = M. avium N-472, Table 4 (series 2)
[33] = M. intracellulare N-294, Table 4 (series 2)
[34] = M. intracellulare N-313, Table 4 (series 2)
[35] = M. intracellulare N-338, Table 4 (series 2)
[36] = M. intracellulare N-345, Table 4 (series 2)

C[C@H]1COc2c(N3CC(N)C4(CC4)C3)c(F)cc3c(=O)c(C(=O)O)cn1c23 (stereo partly drawn) [Compd. 14]
MIC ([1]; M. tuberculosis H37Rv, Table 5): 0.20 µg/mL (≈ 0.536 µM) | MIC [1, 6]: 0.10 µg/mL (≈ 0.268 µM) | MIC [1, 7]: 0.20 µg/mL (≈ 0.536 µM) | MIC [1, 8]: 0.20 µg/mL (≈ 0.536 µM) | MIC ([2]; M. avium N-357, Table 3): 1.56 µg/mL (≈ 4.18 µM) | MIC ([2]; M. avium N-444, Table 3): 3.13 µg/mL (≈ 8.38 µM) | MIC ([2]; M. avium N-458, Table 3): 1.56 µg/mL (≈ 4.18 µM) | MIC ([2]; M. avium N-472, Table 3): 6.25 µg/mL (≈ 16.7 µM) | MIC [3, 9]: 3.13 µg/mL (≈ 8.38 µM) | MIC [3, 10]: 0.78 µg/mL (≈ 2.09 µM) | MIC [3, 11]: 6.25 µg/mL (≈ 16.7 µM) | MIC [3, 12]: 6.25 µg/mL (≈ 16.7 µM)

COc1c(N2CCN(C)CC2)c(F)cc2c(=O)c(C(=O)O)cn([C@@H]3C[C@@H]3F)c12 [Compd. 15, 6-Fluoro-1-[2-(S)-fluoro-1-(R)-cyclopropyl]-1,4-dihydro-8-methoxy-7-(4-methylpiperazin-1-yl)-4-oxoquinoline-3-carboxylic acid]
MNRC (%) mean ±S.E. 24 hours ([4]; 50 mg/kg): 0.20 ± 0.04% | MNRC (%) mean ±S.E. 48 hours ([4]; 50 mg/kg): 0.14 ± 0.04% | micronucleus induction [4]: weak | MIC [1, 13]: 0.1 µg/mL (≈ 0.254 µM) | MIC [1, 14]: 0.05 µg/mL (≈ 0.127 µM) | MIC [1, 15]: 0.05 µg/mL (≈ 0.127 µM) | MIC [1, 16]: 0.025 µg/mL (≈ 0.0636 µM) | MIC [1, 17]: 0.39 µg/mL (≈ 0.991 µM) | MIC [1, 18]: 0.1 µg/mL (≈ 0.254 µM) | MIC [2, 19]: 0.39 µg/mL (≈ 0.991 µM) | MIC ([2]; Mycobacterium avium, M. avium N-444, Table 3, read-out: MIC): 0.78 µg/mL (≈ 1.98 µM) | MIC [2, 20]: 0.2 µg/mL (≈ 0.508 µM) | MIC ([2]; Mycobacterium avium, M. avium N-472, Table 3, read-out: MIC): 1.56 µg/mL (≈ 3.97 µM) | survival of mice after administration [5]: all mice were survived | Mortality (dead/ test) ([5]; 50 mg/kg): 0/5 | acute toxicity [5]: relatively weak | MIC [3, 11]: 1.56 µg/mL (≈ 3.97 µM) | MIC [3, 21]: 0.39 µg/mL (≈ 0.991 µM) | MIC ([3]; Mycobacterium intracellulare, M. intracellulare N-345, Table 3, read-out: MIC): 3.13 µg/mL (≈ 7.96 µM) | MIC [3, 22]: 1.56 µg/mL (≈ 3.97 µM)

CCC1CN(c2c(F)cc3c(=O)c(C(=O)O)cn(C4CC4)c3c2OC)CCN1 (stereo not drawn) [Compd. 17]
MIC [1, 23]: 0.12 µg/mL (≈ 0.308 µM) | MIC [1, 24]: 0.12 µg/mL (≈ 0.308 µM) | MIC [1, 25]: 0.12 µg/mL (≈ 0.308 µM) | MIC [1, 26]: 0.06 µg/mL (≈ 0.154 µM) | MIC [1, 27]: 2.0 µg/mL (≈ 5.14 µM) | MIC [1, 28]: 0.25 µg/mL (≈ 0.642 µM) | MIC [2, 29]: 1.0 µg/mL (≈ 2.57 µM) | MIC [2, 30]: 2.0 µg/mL (≈ 5.14 µM) | MIC [2, 31]: 1.0 µg/mL (≈ 2.57 µM) | MIC [2, 32]: 8.0 µg/mL (≈ 20.5 µM) | MIC [3, 33]: 2.0 µg/mL (≈ 5.14 µM) | MIC [3, 34]: 0.25 µg/mL (≈ 0.642 µM) | MIC [3, 35]: 1.0 µg/mL (≈ 2.57 µM) | MIC [3, 36]: 1.0 µg/mL (≈ 2.57 µM)

CCC1CN(c2c(F)cc3c(=O)c(C(=O)O)cn(C4CC4F)c3c2OC)CCN1 (stereo not drawn) [Compd. 18]
MIC [1, 23]: 0.12 µg/mL (≈ 0.295 µM) | MIC [1, 24]: 0.12 µg/mL (≈ 0.295 µM) | MIC [1, 25]: 0.12 µg/mL (≈ 0.295 µM) | MIC [1, 26]: 0.06 µg/mL (≈ 0.147 µM) | MIC [1, 27]: 1.0 µg/mL (≈ 2.45 µM) | MIC [1, 28]: 0.25 µg/mL (≈ 0.614 µM) | MIC [2, 29]: 0.50 µg/mL (≈ 1.23 µM) | MIC [2, 30]: 2.0 µg/mL (≈ 4.91 µM) | MIC [2, 31]: 1.0 µg/mL (≈ 2.45 µM) | MIC [2, 32]: 8.0 µg/mL (≈ 19.6 µM) | MIC [3, 33]: 2.0 µg/mL (≈ 4.91 µM) | MIC [3, 34]: 0.25 µg/mL (≈ 0.614 µM) | MIC [3, 35]: 0.50 µg/mL (≈ 1.23 µM) | MIC [3, 36]: 0.50 µg/mL (≈ 1.23 µM)

C[C@H]1COc2c(N3CCN[C@@H](c4ccccc4)C3)c(F)cc3c(=O)c(C(=O)O)cn1c23 [Compd. 27, 9-Fluoro-2,3-dihydro-3-(S)-methyl-7-oxo-10-[3-(S)-phenyl-1-piperazinyl]-7H-pyrido[1.2.3-de][1,4]benzoxazine-6-carboxylic acid]
MNRC (%) mean ±S.E. 24 hours ([4]; 100 mg/kg): 0.20 ± 0.03% | MNRC (%) mean ±S.E. 48 hours ([4]; 100 mg/kg): 0.18 ± 0.04% | micronucleus induction [4]: weak | survival of mice after administration [5]: all mice were survived | Mortality (dead/ test) ([5]; 100 mg/kg): 0/5 | acute toxicity [5]: relatively weak

CC1COc2c(N3CCN(C)CC3)c(F)cc3c(=O)c(C(=O)O)cn1c23 (stereo not drawn) [OFLX, OFLOXAIN, reference compound]
MIC ([1]; M. tuberculosis H37Rv, Table 5): 0.39 µg/mL (≈ 1.08 µM) | MIC [1, 23]: 1.0 µg/mL (≈ 2.77 µM) | MIC [1, 6]: 0.39 µg/mL (≈ 1.08 µM) | MIC [1, 24]: 0.50 µg/mL (≈ 1.38 µM) | MIC [1, 7]: 0.39 µg/mL (≈ 1.08 µM) | MIC [1, 25]: 1.0 µg/mL (≈ 2.77 µM) | MIC ([1]; M. tuberculosis No. 41, Table 5): 0.10 µg/mL (≈ 0.277 µM) | MIC [1, 26]: 0.25 µg/mL (≈ 0.692 µM) | MIC [1, 27]: 8.0 µg/mL (≈ 22.1 µM) | MIC [1, 8]: 0.39 µg/mL (≈ 1.08 µM) | MIC [1, 28]: 1.0 µg/mL (≈ 2.77 µM) | MIC ([2]; M. avium N-357, Table 3): 3.13 µg/mL (≈ 8.66 µM) | MIC [2, 29]: 4.0 µg/mL (≈ 11.1 µM) | MIC ([2]; M. avium N-444, Table 3): 25 µg/mL (≈ 69.2 µM) | MIC [2, 30]: 32 µg/mL (≈ 88.6 µM) | MIC ([2]; M. avium N-458, Table 3): 3.13 µg/mL (≈ 8.66 µM) | MIC [2, 31]: 4.0 µg/mL (≈ 11.1 µM) | MIC ([2]; M. avium N-472, Table 3): 50 µg/mL (≈ 138 µM) | MIC [2, 32]: 128 µg/mL (≈ 354 µM) | MIC [3, 9]: 12.5 µg/mL (≈ 34.6 µM) | MIC [3, 33]: 8.0 µg/mL (≈ 22.1 µM) | MIC [3, 10]: 6.25 µg/mL (≈ 17.3 µM) | MIC [3, 34]: 1.0 µg/mL (≈ 2.77 µM) | MIC [3, 11]: 25 µg/mL (≈ 69.2 µM) | MIC [3, 35]: 2.0 µg/mL (≈ 5.53 µM) | MIC [3, 12]: 25 µg/mL (≈ 69.2 µM) | MIC [3, 36]: 2.0 µg/mL (≈ 5.53 µM)

CO[C@H]1/C=C/O[C@@]2(C)Oc3c(C)c(O)c4c(O)c(c(/C=N/N5CCN(C)CC5)c(O)c4c3C2=O)NC(=O)/C(C)=C\C=C\[C@H](C)[C@H](O)[C@@H](C)[C@@H](O)[C@@H](C)[C@H](OC(C)=O)[C@@H]1C [RFP, rifampicin, reference compound]
MIC [1, 13]: 0.2 µg/mL (≈ 0.243 µM) | MIC [1, 14]: 0.1 µg/mL (≈ 0.122 µM) | MIC [1, 15]: 0.1 µg/mL (≈ 0.122 µM) | MIC [1, 16]: 0.05 µg/mL (≈ 0.0608 µM) | MIC [1, 17]: 3.13 µg/mL (≈ 3.8 µM) | MIC [1, 18]: 3.13 µg/mL (≈ 3.8 µM) | MIC [2, 19]: 50 µg/mL (≈ 60.8 µM) | MIC [2, 20]: 100 µg/mL (≈ 122 µM) | MIC [3, 11]: 3.13 µg/mL (≈ 3.8 µM) | MIC [3, 12]: 3.13 µg/mL (≈ 3.8 µM) | MIC [3, 21]: 0.78 µg/mL (≈ 0.948 µM) | MIC [3, 22]: 3.13 µg/mL (≈ 3.8 µM)
